According to US11471534B2, “Chitosan-pluronic complex and nano-carrier comprising same” (KOREA INSTITUTE OF CERAMIC ENGINEERING AND TECHNOLOGY, priority 2017, dated 2022):

Assay: Distribution of model drug (Nile red) in skin, fluorescence microscope on cryo-sections
Type: in vitro ADME, human
Settings: after the skin penetration experiment, 20 μm cryo-sections
Experimental: After completing a skin penetration experiment of the drugs, skins were fixed in a […] neutral formalin solution for 12 hours or more to confirm how the drugs were distributed in the skins. After mixing the fixed skins with an OCT compound, allowing OCT compound-mixed skins to be frozen in liquid nitrogen of −20° C. or less, and cutting the frozen skins to a thickness of 20 μm through a cryo-section device (−25° C.), sampling was made by attaching the cut skins to glass. After washing samples with deionized water and observing distribution statuses of a model drug (Nile red) in the skins with a fluorescence microscope, observation results are illustrated in FIG. 10.

## CCN(CC)c1ccc2nc3c4ccccc4c(=O)cc-3oc2c1 [Nile red]
  distribution of model drug (Nile red) in the skin: collected in stratum corneum
